From the NIST ThermoML archive (doi:10.1021/je500512f)

Assay: molar heat capacity at constant pressure
Conditions: Liquid, Twin Calvet

CC(F)F [1,1-difluoroethane]
molar heat capacity at constant pressure [J/K/mol]
Conditions | 1490 kPa | 2070 kPa | 2540 kPa | 2950 kPa | 3440 kPa | 4010 kPa | 4600 kPa | 5030 kPa
305.15 K | 121 | 121.14 | 120.81 | 120.28 | 119.29 | 119.55 | 118.96 | 118.49
310.15 K | 121.8 | 121.53 | 121.07 | 120.81 | 120.08 | 119.75 | 119.35 | 119.09
315.15 K | 123.84 | 123.25 | 122.79 | 122.46 | 121.8 | 121.2 | 120.61 | 120.41
320.15 K | 126.16 | 125.23 | 124.77 | 124.24 | 123.71 | 122.99 | 122.06 | 121.8
325.15 K | 129 | 127.61 | 127.01 | 126.42 | 125.89 | 124.97 | 123.84 | 123.45
330.15 K | – | 130.65 | 129.79 | 129.13 | 128.47 | 127.41 | 126.09 | 125.63
335.15 K | – | 134.21 | 133.22 | 132.36 | 131.44 | 130.18 | 128.8 | 128.27
340.15 K | – | – | 137.25 | 136.06 | 134.94 | 133.49 | 131.9 | 131.31
345.15 K | – | – | 141.88 | 140.36 | 139.04 | 137.32 | 135.34 | 134.61
350.15 K | – | – | – | 146.1 | 144.05 | 141.88 | 139.43 | 138.51
355.15 K | – | – | – | – | 150.66 | 147.56 | 144.45 | 143.2
360.15 K | – | – | – | – | – | 155.02 | 151.06 | 149.14

COC [dimethyl ether]
molar heat capacity at constant pressure [J/K/mol]
Conditions | 1460 kPa | 2030 kPa | 2520 kPa | 2930 kPa | 3540 kPa | 4060 kPa | 4580 kPa | 5020 kPa
305.15 K | 113.19 | 112.82 | 112.13 | 112.36 | 111.99 | 111.53 | 111.26 | 111.02
310.15 K | 113.47 | 112.91 | 112.31 | 112.45 | 111.72 | 111.21 | 111.44 | 111.3
315.15 K | 114.8 | 114.11 | 113.6 | 113.47 | 112.78 | 112.13 | 112.45 | 112.22
320.15 K | 116.23 | 115.45 | 115.03 | 114.89 | 114.02 | 113.37 | 113.56 | 113.28
325.15 K | 117.84 | 116.92 | 116.65 | 116.05 | 115.31 | 114.57 | 114.66 | 114.3
330.15 K | – | 118.86 | 118.49 | 117.75 | 117.01 | 116.05 | 116.05 | 115.59
335.15 K | – | 121.34 | 120.84 | 120.15 | 119.27 | 118.03 | 117.98 | 117.38
340.15 K | – | – | 123.92 | 123.09 | 122.08 | 120.65 | 120.52 | 119.82
345.15 K | – | – | 127.75 | 126.55 | 125.35 | 123.92 | 123.65 | 122.86
350.15 K | – | – | – | 130.65 | 129.13 | 127.75 | 127.19 | 126.27
355.15 K | – | – | – | – | 133.46 | 131.94 | 131.06 | 129.91
360.15 K | – | – | – | – | – | 136.82 | 135.67 | 134.15
365.15 K | – | – | – | – | – | 144.01 | 142.31 | 140.42
